US9938269B2, “Inhibitor compounds of phosphodiesterase type 10A” (ABBVIE INC., priority 2011, dated 2018)
pIC50: −log10 of the molar value. Where a name gives a salt, the structure may show the parent alone.

Tests used:
[1] = Determination of the microsomal half-life, rat liver microsomes; conditions: rat, liver microsomes, pH 7.4
PDE10A (human) = target: T1, PDE10A (human) (Homo sapiens, UniProt Q9Y233); assay: Measurement of PDE activity (HTRF cAMP kit), human PDE10A; format: biochemical; conditions: PDE enzymatic reaction, substrate 20 nM for PDE10, 60 minutes at 29 C
T1 construct: purchased BPS Bioscience
T1 sequence (Q9Y233 whole entry): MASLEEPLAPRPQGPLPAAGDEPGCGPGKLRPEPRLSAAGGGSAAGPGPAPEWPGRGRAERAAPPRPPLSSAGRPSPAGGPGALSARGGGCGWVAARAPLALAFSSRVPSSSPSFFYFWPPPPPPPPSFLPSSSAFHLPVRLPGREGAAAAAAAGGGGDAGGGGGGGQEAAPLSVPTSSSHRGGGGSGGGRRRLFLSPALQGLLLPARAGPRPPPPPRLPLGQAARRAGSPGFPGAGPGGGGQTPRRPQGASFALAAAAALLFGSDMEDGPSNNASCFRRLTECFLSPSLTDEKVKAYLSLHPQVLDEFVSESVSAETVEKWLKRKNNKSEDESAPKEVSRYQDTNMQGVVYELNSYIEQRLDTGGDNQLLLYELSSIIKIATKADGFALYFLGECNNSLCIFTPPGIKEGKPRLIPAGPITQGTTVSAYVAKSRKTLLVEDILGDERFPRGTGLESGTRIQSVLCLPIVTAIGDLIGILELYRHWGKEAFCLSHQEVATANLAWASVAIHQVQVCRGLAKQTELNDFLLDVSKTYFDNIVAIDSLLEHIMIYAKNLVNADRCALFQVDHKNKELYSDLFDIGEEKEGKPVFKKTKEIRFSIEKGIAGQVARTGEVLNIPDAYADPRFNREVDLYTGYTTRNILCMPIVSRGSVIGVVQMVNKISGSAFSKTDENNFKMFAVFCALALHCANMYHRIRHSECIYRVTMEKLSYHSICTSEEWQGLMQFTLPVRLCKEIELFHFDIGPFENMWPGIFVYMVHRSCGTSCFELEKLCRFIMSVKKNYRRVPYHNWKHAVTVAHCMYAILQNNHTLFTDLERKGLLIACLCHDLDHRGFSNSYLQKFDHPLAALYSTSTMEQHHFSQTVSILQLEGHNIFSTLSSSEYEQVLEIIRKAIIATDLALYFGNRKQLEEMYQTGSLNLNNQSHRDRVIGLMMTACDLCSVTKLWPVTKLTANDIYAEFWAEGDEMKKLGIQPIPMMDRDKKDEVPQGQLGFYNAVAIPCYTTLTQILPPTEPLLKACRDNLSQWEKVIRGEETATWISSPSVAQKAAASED
Procedure, shortened: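 HTRF detection of cAMP left after hydrolysis, expressed as percent of uninhibited control to derive IC50. Reaction: serially diluted inhibitor mixed with recombinant enzyme, started with 20 nM cAMP, 60 min at 29 °C in Tris-HCl pH 7.5 buffer containing MgCl2 and BSA.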

[2] = Determination of the microsomal half-life, human liver microsomes; conditions: human, liver microsomes, pH 7.4

| microsomal CLint at 0.5 μM [1] [µL/min/mg] | pIC50 (PDE10A (human)) | microsomal CLint at 0.5 μM [2] [µL/min/mg] | Structure (SMILES) |
| --- | --- | --- | --- |
| < 100 | > 7.00 | < 100 | Cc1ccc2c(c1)nc(CCN1Cc3nccc(-c4cncnc4)c3C1=O)n2C [compound 535, 6-[2-(1,5-Dimethyl-1H-benzoimidazol-2-yl)-ethyl]-4-pyrimidin-5-yl-6,7-dihydro-pyrrolo[3,4-b]pyridin-5-one] |
| < 100 | > 7.00 | < 100 | O=C1c2c(N3CCOCC3)ccnc2CN1CCc1ccc2ncccc2n1 [compound 514, 4-Morpholino-6-[2-(1,5-naphthyridin-2-yl)ethyl]-7H-pyrrolo[3,4-b]pyridin-5-one] |
| > 220 | > 7.00 | < 100 | Cc1nc(CCN2Cc3nccc(N4CCOCC4)c3C2=O)sc1C [compound 519, 6-[2-(4,5-Dimethylthiazol-2-yl)ethyl]-4-morpholino-7H-pyrrolo[3,4-b]pyridin-5-one] |
| 100 to 220 | > 7.00 | < 100 | CCc1csc(CCN2Cc3nccc(N4CCOCC4)c3C2=O)n1 [compound 516, 6-[2-(4-Ethylthiazol-2-yl)ethyl]-4-morpholino-7H-pyrrolo[3,4-b]pyridin-5-one] |
| 100 to 220 | > 7.00 | 100 to 220 | O=C1c2c(N3CCOCC3)ccnc2CN1CCc1ccc2sccc2n1 [compound 491, 4-Morpholino-6-(2-thieno[3,2-b]pyridin-5-ylethyl)-7H-pyrrolo[3,4-b]pyridin-5-one] |
| < 100 | 6.70 to 7.00 | < 100 | O=C1c2nccc(-c3cccnc3)c2CN1CCc1ccc2ccccc2n1 [compound 463, 4-Pyridin-3-yl-6-(2-quinolin-2-yl-ethyl)-5,6-dihydro-pyrrolo[3,4-b]pyridin-7-one trifluoroacetate] |
| > 220 | 6.70 to 7.00 | < 100 | COc1ccc(-c2ccnc3c2CN(CCc2cn4ccccc4n2)C3=O)cc1 [compound 461, 6-(2-Imidazo[1,2-a]pyridin-2-yl-ethyl)-4-(4-methoxy-phenyl)-5,6-dihydro-pyrrolo[3,4-b]pyridin-7-one trifluoroacetate] |
| 100 to 220 | 6.70 to 7.00 | < 100 | CCc1ccc(CCN2Cc3nccc(-c4ccncc4)c3C2=O)nc1 [compound 501, 6-[2-(5-Ethyl-2-pyridyl)ethyl]-4-(4-pyridyl)-7H-pyrrolo[3,4-b]pyridin-5-one trifluoroacetate] |
| 100 to 220 | 6.70 to 7.00 | < 100 | Cc1cnc(CCN2Cc3nccc(N4CCOCC4)c3C2=O)cc1C [compound 520, 6-[2-(4,5-Dimethyl-2-pyridyl)ethyl]-4-morpholino-7H-pyrrolo[3,4-b]pyridin-5-one] |
| > 220 | 6.30 to 6.70 | 100 to 220 | O=C1c2c(-c3ccncc3)ccnc2CN1CCc1ccc(-c2ccccc2)cn1 [compound 488, 6-[2-(5-Phenyl-2-pyridyl)ethyl]-4-(4-pyridyl)-7H-pyrrolo[3,4-b]pyridin-5-one trifluoroacetate] |

The next lines start with the compound.

| Structure (SMILES) | microsomal CLint at 0.5 μM [1] [µL/min/mg] | pIC50 (PDE10A (human)) | microsomal CLint at 0.5 μM [2] [µL/min/mg] |
| --- | --- | --- | --- |
| O=C1c2c(-c3ccncc3)ccc(F)c2CN1CCc1cn2ccccc2n1 [Example 280, 4-Fluoro-2-(2-imidazo[1,2-a]pyridin-2-yl-ethyl)-7-pyridin-4-yl-2,3-dihydro-isoindol-1-one] | 100 to 220 | > 7.00 | 100 to 220 |
| O=C1c2c(N3CCOCC3)ccnc2CN1CCc1cn2ccccc2n1 [Example 270, 6-(2-Imidazo[1,2-a]pyridin-2-yl-ethyl)-4-morpholin-4-yl-6,7-dihydro-pyrrolo[3,4-b]pyridin-5-one di-trifluoroacetate] | < 100 | > 7.00 | < 100 |
| COc1ccc(N2CCOCC2)c2c1CN(CCc1ccc3ccccc3n1)C2=O [Example 248, 4-Methoxy-7-morpholin-4-yl-2-(2-quinolin-2-yl-ethyl)-2,3-dihydro-isoindol-1-one] | < 100 | > 7.00 | < 100 |
| O=C1c2c(cccc2-c2ccc(F)cc2)CN1CCc1cn2ccccc2n1 [Example 236, 7-(4-Fluoro-phenyl)-2-(2-imidazol[1,2-a]pyridin-2-yl-ethyl)-2,3-dihydro-isoindol-1-one] | 100 to 220 | 6.30 to 6.70 | 100 to 220 |
| O=C1c2c(-c3ccncc3)ccnc2CN1CCc1nc2ccccc2s1 [Example 375, 6-(2-Benzothiazol-2-yl-ethyl)-4-pyridin-4-yl-6,7-dihydro-pyrrolo[3,4-b]pyridin-5-one] | < 100 | > 7.00 | < 100 |
| Cn1c(CCN2Cc3nccc(-c4cccnc4)c3C2=O)nc2ccccc21 [Example 368, 6-[2-(1-Methyl-1H-benzoimidazol-2-yl)-ethyl]-4-pyridin-3-yl-6,7-dihydro-pyrrolo[3,4-b]pyridin-5-one] | < 100 | > 7.00 | < 100 |
| COc1ccc2nc(CCN3Cc4cccc(N5CCOCC5)c4C3=O)ccc2c1 [Example 116, 2-[2-(6-Methoxy-quinolin-2-yl)-ethyl]-7-morpholin-4-yl-2,3-dihydro-isoindol-1-one hydrochloride] | < 100 | > 7.00 | 100 to 220 |
| O=C1c2c(cccc2N2CCOCC2)CN1CCc1nc2ccccc2s1 [Example 263, 2-(2-Benzothiazol-2-yl-ethyl)-7-morpholin-4-yl-2,3-dihydro-isoindol-1-one trifluoroacetate] | < 100 | > 7.00 | 100 to 220 |
| O=C1c2c(cccc2-c2ccncc2)CN1CCc1nc2ccccn2n1 [Example 230, 7-Pyridin-4-yl-2-(2-[1,2,4]triazolo[1,5-a]pyridin-2-yl-ethyl)-2,3-dihydro-isoindol-1-one] | < 100 | 6.30 to 6.70 | < 100 |
| Cc1ncccc1-c1cccc2c1C(=O)N(CCc1cn3ccccc3n1)C2 [Example 240, 2-(2-Imidazo[1,2-a]pyridin-2-yl-ethyl)-7-(2-methyl-pyridin-3-yl)-2,3-dihydro-isoindol-1-one] | 100 to 220 | > 7.00 | < 100 |
| O=C1c2c(cccc2N2CCOCC2)CN1CCc1ccc2sccc2n1 [Example 556, 7-Morpholino-2-(2-(thieno[3,2-b]pyridin-5-yl)ethyl)isoindolin-1-one] | 100 to 220 | 6.70 to 7.00 | 100 to 220 |
| O=C1c2cccc(N3CCOCC3)c2CN1CCc1ccc2ccccc2n1 [Example 130, 4-Morpholin-4-yl-2-(2-quinolin-2-yl-ethyl)-2,3-dihydro-isoindol-1-one; compound with trifluoro-acetic acid] | > 220 | > 7.00 | 100 to 220 |
| O=C1c2c(cccc2-c2cncnc2)CN1CCc1cn2ccccc2n1 [Example 238, 2-(2-Imidazo[1,2-a]pyridin-2-yl-ethyl)-7-pyrimidin-5-yl-2,3-dihydro-isoindol-1-one] | < 100 | > 7.00 | 100 to 220 |
| O=C1c2c(cccc2-c2cncnc2)CN1CCc1ccc2ccccc2n1 [Example 58, 7-Pyrimidin-5-yl-2-(2-quinolin-2-yl-ethyl)-2,3-dihydro-isoindol-1-one] | < 100 | > 7.00 | > 220 |
| O=C1c2c(ccc(F)c2-c2ccncc2)CN1CCc1ccc2ccccc2n1 [Example 14, 6-Fluoro-7-pyridin-4-yl-2-(2-quinolin-2-yl-ethyl)-2,3-dihydro-isoindol-1-one] | 100 to 220 | > 7.00 | 100 to 220 |
| COc1ccc(-c2ccnn2C)c2c1C(=O)N(CCc1nc3ccccc3s1)C2 [compound 399, 2-[2-(1,3-Benzothiazol-2-yl)ethyl]-7-methoxy-4-(2-methylpyrazol-3-yl)isoindolin-1-one] | 100 to 220 | > 7.00 | < 100 |
| COc1ccc(NC2COC2)c2c1CN(CCc1nc3ccccc3n1C)C2=O [compound 411, 4-Methoxy-2-[2-(1-methyl-1H-benzoimidazol-2-yl)-ethyl]-7-(oxetan-3-ylamino)-2,3-dihydro-isoindol-1-one] | 100 to 220 | > 7.00 | > 220 |
| O=C1c2c(N3CCOCC3)ccnc2CN1CCc1ccc2ccccc2n1 [Example 119, 4-Morpholin-4-yl-6-(2-quinolin-2-yl-ethyl)-6,7-dihydro-pyrrolo[3,4-b]pyridin-5-one] | < 100 | > 7.00 | < 100 |
| O=C1c2c(cccc2NC2COC2)CN1CCc1ccc2ccccc2n1 [Example 274, 7-(Oxetan-3-ylamino)-2-(2-quinolin-2-yl-ethyl)-2,3-dihydro-isoindol-1-one] | 100 to 220 | > 7.00 | 100 to 220 |
| CNCc1ccc(-c2cccc3c2C(=O)N(CCc2ccc4ccccc4n2)C3)cc1 [Example 194, 7-(4-Methylaminomethyl-phenyl)-2-(2-quinolin-2-yl-ethyl)-2,3-dihydro-isoindol-1-one] | 100 to 220 | 6.30 to 6.70 | 100 to 220 |
| CC(C)c1ccc(CCN2Cc3nccc(N4CCOCC4)c3C2=O)nc1 [compound 401, 6-[2-(5-Isopropyl-2-pyridyl)ethyl]-4-morpholino-7H-pyrrolo[3,4-b]pyridin-5-one] | 100 to 220 | > 7.00 | < 100 |
